Data from patent US10137081B2, “Device and method for sustained release of antipsychotic medications” (DELPOR, INC., priority 2012, dated 2018).

What was measured:
[1] = for period of constant, zero-order in vitro release of risperidone: FIGS. 4, 5
Procedure: Singly capped devices were weighed and tared on a conventional laboratory balance. The open end of each device was fitted with a small funnel, and each salt form of drug to be tested was loaded into the reservoir in small (about 10-about 50 mg) portions. When necessary, each added portion of solid was tamped down to the base of the reservoir prior to the next addition. This process was repeated until a specific loading target was met (generally about 250-500 mg). The filled reservoir was then capped with either a closed PEEK cap or a cap configuration identical to that used on the first end of the device, vide supra.
The assembled devices were weighed and then loaded into a custom-built vacuum hydrator. The air space within each device was evacuated by placing the device in a vacuum (<0.5 torr) for no less than 30 min. The devices were then back-filled with phosphate-buffered saline (pH 7.4) applied with a back pressure of 5-10 psi above atmospheric pressure for at least one hour. The devices were then retrieved from the hydration apparatus, wiped with a tissue to absorb any external fluid, weighed, and transferred to petri dishes containing buffer for the drug output assay, vide infra. The success of the hydration step was determined by the measuring the increase in mass before and after hydration.
The dish was placed in an incubator with pCO2 adjusted to give an average buffer pH of 7.4. Approximately once per day, the dishes were retrieved from the incubator. Each device was transferred to a new dish containing an equivalent amount of buffer and then returned to the incubator.
The retained receiving buffer samples were acidified with 3.0 mL of 0.1 M HCl and allowed to stand for approximately 1 hour. An aliquot of each sample (generally 100 μL) was transferred to a single well of a UV-transparent 96 well plate along with 100 μL of 0.1 M HCl diluent. After plating, the absorbance of each well was recorded at 270 nm using a Molecular Devices spectrophotometer. The absorbances were converted into concentrations (and ultimately output mass per day) by comparison to a standard curve. Samples that absorbed outside of the linear range of the instrument were diluted and re-read, as appropriate.

[2] = general statement in the description; cited from earlier work
[3] = In vivo pharmacokinetics, device as subcutaneous implant in rats
Procedure: Six male Sprague Dawley rats (Charles River; Hollister, Calif.) of an initial weight of approximately 250-280 grams were administered a device as a subcutaneous implant. This study complied with all applicable sections of the Final Rules of the Animal Welfare Act regulations (9 CFR), the Public Health Service Policy on Humane Care and Use of Laboratory Animals, the Guide for the Care and Use of Laboratory Animals. […] All animals were weighed and the hair was clipped and removed from the dorsal area prior to dose administration. All animals were anesthetized with isoflurane via an induction chamber and maintained in the appropriate plane of anesthesia using isoflurane inhalant (1-3%) and a vaporizer. The dorsal area of the animal was prepared for implantation using appropriate surgical scrub and ethanol. Aseptic technique was used during implantation. A small incision was made in the skin and a single device implant gently placed in the dorsal subcutaneum using a sterile implanter tool. Following administration, the skin incision was closed with sterile suture. The animals were given an appropriate dose of analgesia (see table below) and allowed to recover.
The animals were euthanized following the blood collection.
Body weights were measured on the day of test article administration and weekly thereafter.
Blood volumes of approximately 0.8 to 1.0 mL were collected at each time point, placed into Vacutainer tubes containing EDTA, and kept on wet ice until processing. For preparation of plasma, tubes were mixed by gentle inversion several times and centrifuged under refrigeration (approximately 2-8° C.) for approximately 15 minutes at approximately 2800 rpm (˜1000×g). Plasma was split into two approximately equal aliquots and transferred to labeled screw-top tubes for storage, and stored at approximately (−60° C. to −80° C.) until shipment to the analytical lab.
Using aseptic technique, the implant site was opened up and a photo of the implant field was taken. Blood draws were made four hours and 24 hours after implant removal. Any observations were recorded.
Bioanalytical measurements of active moiety (risperidone+9-OH risperidone) were conducted by Integrated Analytical Solutions (Berkeley, Calif.) using an LCMS method validated to resolve risperidone and 9-OH risperidone in rat plasma with a lower limit of quantitation (LLQ) of 0.5 ng/mL for each analyte.
Plasma concentrations were normalized to initial body weight for each time point and plotted versus time.

[4] = subcutaneous implant, FIGS. 7, 8

**Q.** For `Cc1nc2n(c(=O)c1CCN1CCC(c3noc4cc(F)ccc34)CC1)CCCC2.O=C(O)c1ccccc1` [risperidone benzoate, reference compound], which “in vitro output pattern relative to the therapeutic window” value ([1]; FIG. 2, upper limit 2.5 mg/day) is on record?
**A.** rises to high levels before falling

**Q.** Which “solubility in water” value [2] does the source give for `Cc1nc2n(c(=O)c1CCN1CCC(c3noc4cc(F)ccc34)CC1)CCCC2` [risperidone free base, risperidone, reference compound] here?
**A.** extremely insoluble in water

**Q.** For `CCCCC(=O)O.Cc1nc2n(c(=O)c1CCN1CCC(c3noc4cc(F)ccc34)CC1)CCCC2` [risperidone pentanoate], which “period of constant plasma level of active moiety” value (“period … of active moiety” for short) [3, 4] is on record?
**A.** greater than 60 days

**Q.** And the “initial period in which in vitro output is slightly above the therapeutic window” value ([1]; FIG. 4, upper limit 2.5 mg/day)?
**A.** 2 weeks

**Q.** What about the “period of constant, zero-order in vitro release of risperidone” value [1] of the same compound?
**A.** at least 60 days

**Q.** With dodecanoate as the compound, how does the “solubility in water” value [2] read?
**A.** not appreciably more soluble than the free base form

**Q.** For risperidone hexanoate, which “examination of the implant site” value ([3]; after 118 days of subcutaneous implantation) is on record?
**A.** no evidence of inflammation or other adverse tissue responses

**Q.** And the “plasma level of active moiety following removal of the device” value ([3]; below LLQ, 4 h and 24 h after implant removal at day 118)?
**A.** < 0.5 ng/mL

**Q.** And the “plasma level of active moiety (risperidone plus 9-OH risperidone)” value ([3]; subcutaneous implant, 290-300 mg salt per device, normalized to initial body weight, constant level after 4 hour burst)?
**A.** about 20 ng/mL

**Q.** What about the “period … of active moiety” value [3, 4] of the same compound?
**A.** 118 days

**Q.** What about the “period … of active moiety” value ([3]; subcutaneous implant, until device removal, FIG. 7) of the same compound?
**A.** about 4 months

**Q.** And the “period of in vitro release of risperidone within the therapeutic range” value ([1]; Example 6, devices 172, 180, 360 and 364, followed for 90-100 days, FIG. 5)?
**A.** ≥ 90 days

**Q.** What about the “period of in vitro release at a constant rate within the therapeutic range” value ([1]; Example 7, followed for 6 months, FIG. 6) of the same compound?
**A.** 6 months

**Q.** And the “period of constant, zero-order in vitro release of risperidone” value [1]?
**A.** 30 to 90 days
